{"source": "patent EP2108954A1", "about": "“A test system for detecting intracellular cyclic nucleotide level and methods and uses thereof” (Max-Planck-Gesellschaft zur Förderung der Wissenschaften …, priority 2008, dated 2009)", "key": {"Or47a and Or83b": {"biological_target": "T1, Or47a and Or83b (Drosophila melanogaster, UniProt P81921+Q9VNB5)", "T1 construct": "expressed in transfected cells; host or cells: HEK293", "T1 sequence (P81921 1-385)": "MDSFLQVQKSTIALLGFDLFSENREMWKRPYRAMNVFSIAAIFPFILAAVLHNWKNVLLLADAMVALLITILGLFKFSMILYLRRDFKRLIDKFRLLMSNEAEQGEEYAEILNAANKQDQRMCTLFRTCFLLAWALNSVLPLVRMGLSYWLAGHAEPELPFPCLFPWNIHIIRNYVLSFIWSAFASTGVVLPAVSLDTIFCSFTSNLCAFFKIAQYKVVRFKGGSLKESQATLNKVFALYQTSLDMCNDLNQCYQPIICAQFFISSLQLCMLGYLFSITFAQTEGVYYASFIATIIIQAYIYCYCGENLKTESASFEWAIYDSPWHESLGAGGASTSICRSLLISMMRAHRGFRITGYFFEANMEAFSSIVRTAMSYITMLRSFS", "T1 sequence (Q9VNB5 1-486)": "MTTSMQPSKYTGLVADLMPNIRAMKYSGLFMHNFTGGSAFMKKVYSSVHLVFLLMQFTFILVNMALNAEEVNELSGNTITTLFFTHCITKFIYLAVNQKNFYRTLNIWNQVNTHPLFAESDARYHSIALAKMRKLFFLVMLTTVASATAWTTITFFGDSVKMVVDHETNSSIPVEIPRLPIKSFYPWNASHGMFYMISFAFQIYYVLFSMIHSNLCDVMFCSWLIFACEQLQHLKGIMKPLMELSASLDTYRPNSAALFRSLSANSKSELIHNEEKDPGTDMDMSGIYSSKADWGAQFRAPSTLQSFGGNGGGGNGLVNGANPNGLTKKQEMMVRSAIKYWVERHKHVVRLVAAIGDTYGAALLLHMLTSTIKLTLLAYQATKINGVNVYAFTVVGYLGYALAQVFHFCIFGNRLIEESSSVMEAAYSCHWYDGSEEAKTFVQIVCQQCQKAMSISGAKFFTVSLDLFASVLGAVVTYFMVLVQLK", "assay": "Whole-cell patch-clamp of HEK293 cells expressing Or47a and Or83b", "format": "cell-based", "conditions": "100 µM; -100 mV (Fig. 7)", "method": "(§1) In some experiments we transfected cells with pcDNA3-DOR22a-GFP or pcDNA3-DOR83b-GFP alone. We also examined the properties of DOR47a, which was cloned, using standard molecular biology methods into a pcDNA3.1(-) expression vector. To test for putative G-protein coupling, cells were transfected with the respective OR-DNA together with 1.5 µg hHCN2/pcDNA3 (provided by M. Biel, Munich, Germany), with 1 µg hKCNQ4/pcDNA3.1 or with 1 µg hCNGA2/pCMV6-XL4 (Origene, Rockville, MD, USA).\n(§2) In brief, ion currents in HEK293 cells were measured at room temperature using whole-cell patch-clamp with appropriate compensation of series resistance and of capacitive currents. Additional experiments were performed in the outside-out configuration. Current measurements and data acquisition were performed using an EPC9 patch-clamp amplifier controlled by PatchMaster software (both HEKA Elektronik, Lambrecht, Germany). Patch-clamp pipettes were fabricated from borosilicate capillaries. Pipettes for whole-cell recordings had resistances of 2-4 MΩ for excised-patch recordings the pipette resistance was up to 15 MΩ."}, "Or83b [1]": {"biological_target": "T2, Or83b (Drosophila melanogaster, UniProt Q9VNB5)", "T2 sequence (Q9VNB5 1-486)": "T1 sequence (Q9VNB5 1-486)", "assay": "Whole-cell patch-clamp of HEK293 cells expressing Or83b alone", "format": "cell-based", "parameters": "expressed in transfected cells; host or cells: HEK293", "method": "as §1, §2\n(§3) To differentiate between ionotropic and metabotropic pathways of receptor activation (Fig. 2a-d) the pipette solution contained either 2 mM ATP plus 2 mM GTP or 2 mM ADP plus 2 mM GDP (both for whole-cell and outside-out configuration). For the preparation of Cl^--free solutions the chloride salts were substituted by gluconate salts. The pipette Cs^+ solution contained (in mM) 140 CsCl, 1 Mg-ATP, 10 EGTA, 10 HEPES (pH = 7.3), and the Cs^+ bath solution contained (in mM) 140 CsCl, 15 glucose, 15 HEPES (pH = 7.4). The Ca^2+-free bath solution contained (in mM) 140 NaCl, 15 glucose, 15 HEPES, and the Na^+-free bath solution contained (in mM) 140 NMDG-Cl, 10 CaCl2, 10 glucose, 15 HEPES.\n(§4) With the exception of GDP-γ-S, which was applied via the patch pipette, all substances were applied to the bath using either a bath perfusion system (BPS4 from ALA, New York, USA) or a rapid solution changer (RSC160 from Biologic, Claix, France) which were controlled by the PatchMaster software (HEKA Elektronik)."}, "Or83b [2]": {"biological_target": "T2, Or83b", "assay": "Calcium imaging (fura-2) in HEK293 cells expressing Or83b", "format": "cell-based", "parameters": "expressed in transfected cells; host or cells: HEK293", "conditions": "cell expressing Or83b (Fig. 6e)", "method": "Free intracellular Ca^2+ concentration ([Ca^2+]i) was determined by fura-2 fluorescence as described (Messutat et al., Cell Calcium 30, 199-211. (2001)). In brief, cells were loaded with fura-2 by incubation in bath solution containing 2 µM fura-2/acetomethylester for 20 min. Free intracellular Ca^2+ concentration ([Ca^2+]i) was determined with the fluorescence ratio method. Excitation of fura-2 at 340 and 380 nm was performed with a monochromator (Polychrome II, T.I.L.L. Photonics, Gräfelfing, Germany) coupled via an epifluorescence condenser into an Axioskop FS microscope (Carl Zeiss, Jena, Germany) with a water immersion objective (LUMPFL 40xW/IR/0.8; Olympus, Hamburg, Germany). […] [Ca^2+]i was calculated according to the equation [Ca^(2 +)]i = Keff (R-Rmin)/(Rmax-R). […] Keff, Rmin, and Rmax were determined using HEK293 cells permeabilized with 2 µM ionomycin and three solutions with different concentrations of free Ca^2+ (Ca^2+ free; 5 mM Ca^2+; 500 nM Ca^2+; the composition of the 500 nM solution was calculated with WEBMAXC v.2.20) (Patton et al., Cell Calcium 35, 427-31 (2004)). […]\nFluorescence images were acquired using a cooled CCD camera controlled by TILLVision 4.0 software (T.I.L.L. Photonics). […] Image pairs were obtained by excitation for 100 ms at 340 nm and 380 nm; background fluorescence was subtracted."}, "Or22a and Or83b": {"biological_target": "T3, Or22a and Or83b (Drosophila melanogaster, UniProt P81909+Q9VNB5)", "T3 construct": "expressed in transfected cells; host or cells: HEK293", "T3 sequence (P81909 1-397)": "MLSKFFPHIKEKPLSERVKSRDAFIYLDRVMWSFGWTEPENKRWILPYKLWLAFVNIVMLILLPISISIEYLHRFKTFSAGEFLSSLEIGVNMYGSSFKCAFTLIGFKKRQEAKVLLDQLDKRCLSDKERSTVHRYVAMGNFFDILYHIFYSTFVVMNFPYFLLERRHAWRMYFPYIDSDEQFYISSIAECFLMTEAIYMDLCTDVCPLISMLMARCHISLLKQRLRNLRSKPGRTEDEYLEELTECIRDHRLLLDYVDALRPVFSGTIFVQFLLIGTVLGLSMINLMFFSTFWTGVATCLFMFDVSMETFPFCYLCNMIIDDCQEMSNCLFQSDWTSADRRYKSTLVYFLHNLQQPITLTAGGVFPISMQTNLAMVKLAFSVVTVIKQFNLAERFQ", "T3 sequence (Q9VNB5 1-486)": "T1 sequence (Q9VNB5 1-486)", "assay": "Whole-cell patch-clamp of currents in HEK293 cells coexpressing Or22a and Or83b", "format": "cell-based", "conditions": "absence of Etb; 10 µM benzaldehyde; n = 6", "method": "as §1, §2, §3, §4"}, "[3]": {"tested_on": "modified cyclic nucleotide-gated ion channels", "conditions": "US 07166463 and US 07341836; cited from earlier work"}, "Or83b [4]": {"biological_target": "T2, Or83b", "assay": "cell-based", "conditions": "-60 mV, n = 10", "method": "For this, HEK293 cells were cultured at a density of ∼2*10^4 per 35-mm dish and transfected with 1 µg pcDNA3-DOR83b-GFP (Neuhaus et al., Nat Neurosci 8: 15-17, 2005.) using Roti-Fect transfection kit (Roth, Karlsruhe, Germany). For electrophysiological experiments we only used cells showing GFP fluorescence (when illuminated at 470 nm) as indicator of putative OR expression.\nFor electrophysiological studies, ion currents in HEK293 cells were measured at room temperature in the inside-out configuration. Current measurements and data acquisition were performed using an EPC9 patch-clamp amplifier controlled by PatchMaster software (both HEKA Elektronik, Lambrecht, Germany). Patch-clamp pipettes were fabricated from borosilicate capillaries. Pipettes for whole-cell recordings had resistances of up to 15 MΩ. The bath solution contained (in mM) 140 KCI, 4 NaCl, 2.2 CaCl2, 2 Mg-ATP, 0.05 Na-GTP, 5 EGTA, 10 HEPES (pH 7.3), and the pipette solution contained (in mM) 135 NaCl, 5 KCI, 1 CaCl2, 1 MgCl2, 10 HEPES, 10 glucose (pH 7.4)."}, "vertebrate CNGA2 channel": {"biological_target": "T4, vertebrate CNGA2 channel (Rattus norvegicus, UniProt Q00195)", "T4 sequence (Q00195 1-664)": "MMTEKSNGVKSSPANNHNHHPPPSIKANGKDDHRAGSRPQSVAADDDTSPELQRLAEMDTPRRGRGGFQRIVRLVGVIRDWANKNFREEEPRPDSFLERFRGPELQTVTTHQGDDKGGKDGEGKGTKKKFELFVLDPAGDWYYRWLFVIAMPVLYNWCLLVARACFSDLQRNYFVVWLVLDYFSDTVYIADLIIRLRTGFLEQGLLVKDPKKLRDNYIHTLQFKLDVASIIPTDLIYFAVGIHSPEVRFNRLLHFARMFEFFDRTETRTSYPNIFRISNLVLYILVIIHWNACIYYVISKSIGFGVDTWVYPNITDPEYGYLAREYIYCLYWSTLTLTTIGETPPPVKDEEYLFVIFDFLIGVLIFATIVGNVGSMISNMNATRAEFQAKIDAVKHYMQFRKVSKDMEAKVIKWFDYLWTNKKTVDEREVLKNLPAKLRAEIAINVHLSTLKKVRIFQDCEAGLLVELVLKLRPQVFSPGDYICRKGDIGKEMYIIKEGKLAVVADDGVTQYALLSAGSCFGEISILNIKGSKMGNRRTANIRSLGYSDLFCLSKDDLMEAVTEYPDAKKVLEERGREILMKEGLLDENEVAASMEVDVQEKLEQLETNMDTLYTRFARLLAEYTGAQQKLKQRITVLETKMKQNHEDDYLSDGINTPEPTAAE", "conditions": "Dhallan et al., Nature 347 (1990); cited from earlier work"}, "[5]": {"biological_target": "Periplaneta adipokinetic hormone receptor (pAKHR) (Periplaneta)", "assay": "cell-based or functional assay"}}, "note": "Values joined by “and” are separate entries in the source; they are usually repeats but may differ in a detail not shown here. Identical values can stand only once.", "data": [{"compound": "Nc1nc2c(nc(Br)n2[C@@H]2O[C@@H]3COP(=O)(O)O[C@H]3[C@H]2O)c(=O)[nH]1", "note": "[8-bromo-cGMP]", "values": [{"measurement": "current response of cells", "setting": "Or47a and Or83b", "result": "responsive"}, {"measurement": "current elicited", "setting": "Or83b [1]; Or83b-expressing HEK293 cells", "result": "elicited a current similar to that obtained upon 8-bromo-cAMP application"}, {"measurement": "agonist comparison for current activation", "setting": "Or83b [1]; concentration-response relations, -100 mV (Fig. 6d)", "result": "significantly better agonist than 8-bromo-cAMP"}, {"measurement": "agonist comparison for the elevation of [Ca^2+]i", "setting": "Or83b [2]", "result": "significantly better agonist than 8-bromo-cAMP"}]}, {"compound": "O=Cc1ccccc1", "note": "[Bea, benzaldehyde]", "values": [{"measurement": "effect on current recorded under control conditions", "setting": "Or22a and Or83b", "result": "reduced the current recorded under control conditions"}]}, {"compound": "CCCCCCOC(=O)C1(O)CC2OC1(C)n1c3ccccc3c3c4c(c5c6ccccc6n2c5c31)C(=O)NC4", "note": "(stereo not drawn) [KT5720]", "values": [{"measurement": "effect of preincubation on ion currents elicited by 8-bromo-cAMP", "setting": "Or83b [1]; 10 µM, n = 6", "result": "not significantly altered"}]}, {"compound": "CCCCCOC(C)=O", "note": "[PA, pentyl acetate]", "values": [{"measurement": "current response of cells", "setting": "Or47a and Or83b", "result": "responding"}]}, {"compound": "Nc1ncnc2c1ncn2[C@@H]1O[C@@H]2COP(=O)(O)O[C@H]2[C@H]1O", "note": "[cAMP, 3'-5'-cyclic adenosine monophosphate]", "values": [{"measurement": "EC50", "setting": "[3]", "result": 14500, "unit": "nM"}, {"measurement": "Hill coefficient of mean currents of inside-out patches", "setting": "Or83b [4]", "result": 0.42}, {"measurement": "EC50", "setting": "Or83b [4]; EC50 of mean currents of inside-out patches", "result": "1 nM and 1.1 nM"}]}, {"compound": "Nc1nc2c(ncn2[C@@H]2O[C@@H]3COP(=O)(O)O[C@H]3[C@H]2O)c(=O)[nH]1", "note": "[cGMP, cyclic guanosine monophosphate]", "values": [{"measurement": "EC50", "setting": "vertebrate CNGA2 channel", "result": 1000, "unit": "nM"}]}, {"compound": "adipokinetic hormone I (AKH I) (peptide)", "values": [{"measurement": "membrane current at -100 mV (whole-cell patch clamp, ramp protocol) in HEK293 cells coexpressing pAKHR and the cAMP-activated channel Or83b, after application of AKH I", "setting": "[5]", "result": 294, "unit": "pA"}]}]}
